Experimental data reported in article PMC5403950, “Mechanism Underlying the Reversal of Drug Resistance in P-Glycoprotein-Expressing Leukemia Cells by Pinoresinol and the Study of a Derivative” (Frontiers in Pharmacology, 2017).

How the values were obtained:
K562 cells [1] = experiment: Multidrug resistance reversal assay (MTT) with DOX, sensitive parental line; type: cell-based, human; settings: compound at 14 μM
Description: (§1) Briefly, 5 × 10^4 Lucena 1 cells per well were seeded in 96-well plates containing RPMI-1640 medium in the presence of DOX alone or in combination with the tested compounds dissolved in ethanol or acetonitrile as appropriate. DOX was added to reach final concentrations of 0.05–431 μM. The compounds were assayed at the highest non-toxic concentration observed in both cell lines (cytotoxicity ≤ 20%, Cytotoxicity (%) = [1-(Optical density treatment-Optical density DMSO)/(Optical density control-Optical density DMSO)] x 100, determined by MTT proliferation assay (Joray et al., [2015]); maximum concentration tested 40 μg mL^−1). Following the primary screening, compounds 14 and 16 (dissolved in ethanol) were tested at serial dilutions. […] Subsequently, the supernatants were removed and replaced with 100 μL DMSO to solubilize the resulting purple formazan crystals produced from metabolically viable cells. Absorbance was measured with an iMark micro-plate reader (Bio-Rad, USA) at 595 nm.
(§2) The same reversal assay was performed in K562 cells, in order to discard a decrease in the IC50 of DOX due to effects other than P-gp inhibition. The reversal fold (RF) values for the tested compounds, which indicate their capacity to reduce resistance to DOX, were calculated by dividing the IC50 of DOX alone by the IC50 of DOX in the presence of the tested compounds (Xu et al., [2014]).

[2] = test system: peripheral blood mononuclear cells (PBMC); experiment: Cytotoxicity on peripheral blood mononuclear cells (MTT); type: cell-based, human; settings: PHA 10 μg mL−1, 48 h, confidence limits in brackets
Description: (§3) The cytotoxicity of 14 and 16 on peripheral blood mononuclear cells (PBMC) was evaluated by MTT assay (Joray et al., [2015]). PBMC were collected from fresh heparinized blood and separated by density gradient centrifugation (Ficoll®) as described by Rennó et al. ([2008]). As the current study required samples from healthy human volunteer donors, ethical approval was provided by the Catholic University of Córdoba Research Ethics Board. Signed informed consents were obtained from donors. […] Absorbance (Abs) and percentage of cytotoxicity were determined as described above and the IC50 values were calculated. The experiment was carried out in two separate stages.

[3] = as above; type: cell-based, human; settings: human, peripheral blood mononuclear cells (PBMC), PHA 10 μg mL−1, confidence limits in brackets
Description: as §3

P-gp [4] = biological target: T1, P-gp (Homo sapiens, UniProt P08183); settings: Lucena 1; 1 h pre-incubation, 5 μM DOX 1 h
T1 sequence (P08183 whole entry): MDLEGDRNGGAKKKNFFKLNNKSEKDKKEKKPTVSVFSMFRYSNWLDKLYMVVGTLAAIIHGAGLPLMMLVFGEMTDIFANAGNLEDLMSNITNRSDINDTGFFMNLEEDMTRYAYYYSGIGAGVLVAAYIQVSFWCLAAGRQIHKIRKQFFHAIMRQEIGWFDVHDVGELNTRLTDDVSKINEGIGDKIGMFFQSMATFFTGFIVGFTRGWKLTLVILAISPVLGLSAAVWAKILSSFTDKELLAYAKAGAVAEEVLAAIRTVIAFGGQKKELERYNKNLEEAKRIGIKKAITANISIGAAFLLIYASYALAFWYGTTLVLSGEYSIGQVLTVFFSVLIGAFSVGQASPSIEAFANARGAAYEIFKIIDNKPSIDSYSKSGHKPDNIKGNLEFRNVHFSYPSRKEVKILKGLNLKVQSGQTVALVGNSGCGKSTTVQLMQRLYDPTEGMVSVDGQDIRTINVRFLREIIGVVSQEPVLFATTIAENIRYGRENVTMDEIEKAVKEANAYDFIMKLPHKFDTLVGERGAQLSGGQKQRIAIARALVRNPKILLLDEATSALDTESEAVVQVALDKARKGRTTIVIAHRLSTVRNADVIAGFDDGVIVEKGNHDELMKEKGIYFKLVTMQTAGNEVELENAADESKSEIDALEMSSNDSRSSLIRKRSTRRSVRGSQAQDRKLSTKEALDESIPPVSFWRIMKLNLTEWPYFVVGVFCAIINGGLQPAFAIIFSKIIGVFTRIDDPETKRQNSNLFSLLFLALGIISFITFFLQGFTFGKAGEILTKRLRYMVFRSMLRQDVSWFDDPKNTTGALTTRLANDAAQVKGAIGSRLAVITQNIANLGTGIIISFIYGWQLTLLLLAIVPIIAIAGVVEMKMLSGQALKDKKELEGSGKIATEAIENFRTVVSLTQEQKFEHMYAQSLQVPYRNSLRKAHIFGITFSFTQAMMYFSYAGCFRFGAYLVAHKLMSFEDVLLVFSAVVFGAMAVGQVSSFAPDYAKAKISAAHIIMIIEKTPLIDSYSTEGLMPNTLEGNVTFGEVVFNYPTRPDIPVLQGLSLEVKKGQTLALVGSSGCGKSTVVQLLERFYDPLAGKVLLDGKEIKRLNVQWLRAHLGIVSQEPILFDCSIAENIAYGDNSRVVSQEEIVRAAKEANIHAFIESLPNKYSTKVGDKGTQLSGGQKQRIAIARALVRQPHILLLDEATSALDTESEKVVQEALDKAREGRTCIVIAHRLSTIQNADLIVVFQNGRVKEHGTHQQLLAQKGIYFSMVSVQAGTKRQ

K562 cells [5] = experiment: Doxorubicin intracellular accumulation assay (flow cytometry), K562; type: cell-based, human; settings: up to the maximum concentration evaluated
Excerpt: […]. […] Viability controls were included in all the experiments.

Lucena 1 cells = experiment: Multidrug resistance reversal assay (MTT) with DOX; type: cell-based, human
Description: as §1, §2

P-gp [6] = biological target: T1, P-gp; experiment: in vitro; settings: Lucena 1 cells, probe doxorubicin (DOX) 5 μM

## COc1cc([C@H]2OC[C@]3(OC(C)=O)[C@@H](c4ccc(O)c(OC)c4)OC[C@H]23)ccc1O [Compound 16, 1-acetoxy-(+)-pinoresinol]
K562 cells [1]
  Effect on DOX activity in K562: no potentiation
K562 cells [1]; DOX
  RF K562: 1.05 ± 0.14
[2]
  IC50: 103 µM
[3]
  IC50 at 48 h: 103 µM
P-gp [4]
  Minimum effective concentration (MEC) in the DOX accumulation assay: 0.87 µM
K562 cells [5]
  DOX accumulation in K562: no increase in DOX accumulation
Lucena 1 cells; Lucena 1, DOX
  Minimum effective concentration (MEC) in the reversal assay (potentiation of DOX toxicity from): 0.11 µM
Lucena 1 cells; compound at 0.11 μM, DOX
  RF Lucena 1: 1.4
Lucena 1 cells; compound at 14 μM, DOX
  RF Lucena 1: 22.7
Lucena 1 cells; reversal and accumulation assays
  Effectiveness of 16 relative to 14 according to the MECs: 64 times
P-gp [6]
  activity at 0.87 µM: 62%
  activity at 14 µM: 141%
